Molecular target: Nav1.7 (Homo sapiens, UniProt Q15858)
Experiment: EFS-FRET assay
Assay type: cell-based
Parameters: expressed in transfected cells; host or cells: CHO (Chinese hamster ovary) cells
Conditions: CHO cells expressing human Nav1.7 channels, read-out: IC50 against Nav1.7
Description: This screen is used to determine the effects of compounds on human Nav1.7 channels, utilizing electrical field stimulation (EFS) system in 96-well plate format on FDSS (Hamamatsu Photonics) platform. The changes of membrane potential are monitored with FRET dye pair, DiSBAC2(3) and PTS18.
CHO (Chinese hamster ovary) cells expressing human Nav1.7 channels are grown in T225 flasks, in a 5% CO2 humidified incubator to about 80% confluence. Media composition consists of HAM/F12 with Glutamax I, 10% FCS, 100 units/mF penicillin and 100 microgram/mF hygromycin.
• Seed each cell lines (1×10^5 cells/well) into 96-well plates prior to experimentation. • Incubate at 37° C. in 5% CO2 for 24 hours. • Wash each well with assay buffer (140 mM NaCl, 4.5 mM KCl, 10 mM D-Glucose, 2 mM CaCl2, 1 mM MgCl2, 10 mM HEPES, pH 7.4 adjusted with NaOH) twice. • Add 1st loading solution containing 10 microM PTS18 and 0.06% Pluronic F-127 in assay buffer. • Incubate the plate at rt in dark for 1 hour. • Remove 1st loading solution and add 2nd loading solution containing 12.5 microM DiSBAC2(3), 1.25 mM Xylene Fast Yellow and 0.0075% Pluronic F-127 in assay buffer. • Place the plate under the dark at rt for 25 minutes. • Add compound solutions into the assay plate. • Set the assay plate in FDSS and place an EFS device on the plate. • Measure EFS-induced fluorescent response by FDSS.
The data are analyzed and reported as normalized ratios of intensities measured at […]. The process of calculating these ratios is performed as follows:
This analysis is performed using a computerized specific program designed for FDSS generated data. Fluorescence ratio values are plotted using XLfit to determine an IC50 value for each compound.

Sequence of Nav1.7 (Q15858 whole entry): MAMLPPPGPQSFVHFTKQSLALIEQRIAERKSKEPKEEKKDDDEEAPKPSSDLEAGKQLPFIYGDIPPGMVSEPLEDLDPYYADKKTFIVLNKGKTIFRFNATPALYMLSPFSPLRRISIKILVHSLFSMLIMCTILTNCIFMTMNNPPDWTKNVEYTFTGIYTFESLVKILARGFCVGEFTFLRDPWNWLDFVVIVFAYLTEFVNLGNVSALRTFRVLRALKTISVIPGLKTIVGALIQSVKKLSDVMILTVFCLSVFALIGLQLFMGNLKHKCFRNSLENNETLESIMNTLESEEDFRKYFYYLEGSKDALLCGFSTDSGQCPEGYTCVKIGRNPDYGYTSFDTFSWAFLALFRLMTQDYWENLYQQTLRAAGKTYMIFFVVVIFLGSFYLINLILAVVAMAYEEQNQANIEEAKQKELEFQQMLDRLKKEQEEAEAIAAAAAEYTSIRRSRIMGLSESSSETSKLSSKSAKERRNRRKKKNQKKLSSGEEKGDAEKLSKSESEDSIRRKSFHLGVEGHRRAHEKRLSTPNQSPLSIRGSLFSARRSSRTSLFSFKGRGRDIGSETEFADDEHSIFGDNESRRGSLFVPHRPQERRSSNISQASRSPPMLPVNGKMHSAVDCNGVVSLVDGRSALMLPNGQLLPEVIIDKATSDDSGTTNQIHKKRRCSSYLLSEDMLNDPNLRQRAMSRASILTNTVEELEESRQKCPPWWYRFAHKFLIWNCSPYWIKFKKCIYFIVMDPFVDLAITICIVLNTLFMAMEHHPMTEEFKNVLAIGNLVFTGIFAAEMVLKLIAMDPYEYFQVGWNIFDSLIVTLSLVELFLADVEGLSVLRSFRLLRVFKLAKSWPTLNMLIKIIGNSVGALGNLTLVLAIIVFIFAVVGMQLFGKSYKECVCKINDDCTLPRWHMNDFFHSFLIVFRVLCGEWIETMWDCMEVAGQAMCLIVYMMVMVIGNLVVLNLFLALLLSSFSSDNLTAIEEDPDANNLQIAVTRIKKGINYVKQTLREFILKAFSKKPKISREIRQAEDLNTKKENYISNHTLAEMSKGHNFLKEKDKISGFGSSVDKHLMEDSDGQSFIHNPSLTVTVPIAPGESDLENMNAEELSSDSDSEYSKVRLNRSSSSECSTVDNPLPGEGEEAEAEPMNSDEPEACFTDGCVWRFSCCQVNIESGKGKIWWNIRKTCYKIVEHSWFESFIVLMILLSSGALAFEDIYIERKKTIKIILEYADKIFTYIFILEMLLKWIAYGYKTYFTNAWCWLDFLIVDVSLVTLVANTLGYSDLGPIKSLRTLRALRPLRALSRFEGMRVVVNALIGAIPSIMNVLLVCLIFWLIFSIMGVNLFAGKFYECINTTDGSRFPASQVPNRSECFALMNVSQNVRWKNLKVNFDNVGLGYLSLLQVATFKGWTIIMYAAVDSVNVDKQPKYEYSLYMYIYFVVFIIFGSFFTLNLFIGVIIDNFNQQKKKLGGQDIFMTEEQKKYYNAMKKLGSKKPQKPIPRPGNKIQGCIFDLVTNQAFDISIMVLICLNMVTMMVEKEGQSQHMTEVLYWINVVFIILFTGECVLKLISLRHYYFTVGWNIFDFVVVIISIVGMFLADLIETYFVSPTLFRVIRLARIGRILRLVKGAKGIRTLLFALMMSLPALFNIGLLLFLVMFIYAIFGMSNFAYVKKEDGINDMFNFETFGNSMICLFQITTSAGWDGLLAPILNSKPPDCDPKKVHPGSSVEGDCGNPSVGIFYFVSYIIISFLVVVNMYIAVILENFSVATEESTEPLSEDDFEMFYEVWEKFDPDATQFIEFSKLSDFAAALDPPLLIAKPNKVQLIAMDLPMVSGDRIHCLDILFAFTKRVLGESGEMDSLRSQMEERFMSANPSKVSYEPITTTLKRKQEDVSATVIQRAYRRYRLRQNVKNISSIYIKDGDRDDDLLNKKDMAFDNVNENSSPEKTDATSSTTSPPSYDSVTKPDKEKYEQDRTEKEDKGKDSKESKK

Row | SMILES | IC50
1 | CC(=O)Nc1cc(C(=O)N[C@@H]2CCN(c3ncc(C(F)(F)F)cc3Cl)C2)cc(C)n1 [Example 49] | < 0.5 µM
2 | O=C(N[C@@H]1CCCN(c2ccc(C(F)(F)F)cc2Cl)C1)c1ccnc(NC(=O)C2CC2)c1 [Example 55] | < 0.5 µM
3 | CCC(=O)Nc1cc(C(=O)N[C@@H]2CCCN(c3ncc(OCC(F)(F)F)cc3Cl)C2)ccn1 [Example 95] | < 0.5 µM
4 | CCC(=O)Nc1cc(C(=O)N[C@@H]2CCN(c3ccc(C(F)(F)F)cn3)C2)ccn1 [Example 16] | < 0.5 µM
5 | Cc1cc(C(F)(F)F)cnc1N1CC[C@@H](NC(=O)c2ccnc(NC(=O)C3CC3)c2)C1 [Example 47] | < 0.5 µM
6 | CCC(=O)Nc1cc(C(=O)N[C@@H]2CCN(c3ncc(C(F)(F)F)cc3Cl)C2)cc(C)n1 [Example 11] | < 0.5 µM
7 | CCC(=O)Nc1cc(C(=O)N[C@@H]2CCCN(c3ccc(OC(F)(F)F)cc3Cl)C2)ccn1 [Example 129] | < 0.5 µM
8 | Cc1cc(C(=O)NC2CN(c3ncc(C(F)(F)F)cc3Cl)C2)nc(NC(=O)C2CC2)n1 [Example 53] | < 0.5 µM
9 | O=C(N[C@@H]1CCCN(c2ccc(OC(F)(F)F)cc2Cl)C1)c1ccnc(NC(=O)C2CC2)n1 [Example 126] | < 0.5 µM
10 | O=C(N[C@@H]1CCCN(c2ncc(C(F)(F)F)cc2Cl)C1)c1ccnc(NC(=O)C2CC2)n1 [Example 26] | < 0.5 µM
11 | CC(=O)Nc1cc(C(=O)NC2CCC(C)N(c3ncc(C(F)(F)F)cc3Cl)C2)ccn1 (centres unmarked) [Example 41] | < 0.5 µM
12 | CC(=O)Nc1cc(C(=O)N[C@@H]2CCN(c3ccc(C(F)(F)F)cc3)C2)ccn1 [Example 120] | < 0.5 µM
13 | CC(=O)Nc1cc(C(=O)N[C@H]2CN(c3ncc(C(F)(F)F)cc3Cl)CC23CC3)cc(C)n1 [Example 117] | < 0.5 µM
14 | O=C(N[C@@H]1CCCN(c2ccc(OC(F)(F)F)cc2Cl)C1)c1ccnc(NC(=O)C2CC2)c1 [Example 125] | < 0.5 µM
15 | CCC(=O)Nc1cc(C(=O)N[C@H]2CN(c3ncc(C(F)(F)F)cc3Cl)CC23CC3)ccn1 [Example 116] | < 0.5 µM
16 | COc1cc(C(F)(F)F)cnc1N1CC[C@@H](NC(=O)c2cc(C)nc(NC(=O)C3CC3)c2)C1 [Example 82] | < 0.5 µM
17 | COc1cc(C(F)(F)F)cnc1N1CC[C@@H](NC(=O)c2ccnc(NC(=O)C(C)C)c2)C1 [Example 83] | < 0.5 µM
18 | CC(C)C(=O)Nc1cc(C(=O)N[C@@H]2CCN(c3ccc(C(F)(F)F)cc3Cl)C2)ccn1 [Example 79] | < 0.5 µM
19 | CC(=O)Nc1cc(C(=O)N[C@@H]2CCCN(c3ncc(C(F)(F)F)cc3Cl)C2)ccn1 [Example 5] | < 0.5 µM
20 | O=C(N[C@@H]1CCN(c2ccc(C(F)(F)F)cc2F)C1)c1ccnc(NC(=O)C2CC2)n1 [Example 121] | < 0.5 µM
21 | CC(=O)Nc1cc(C(=O)N[C@@H]2CCN(c3ncc(C(F)(F)F)cc3C)C2)ccn1 [Example 46] | < 0.5 µM
22 | Cc1cc(C(=O)N[C@@H]2CCCN(c3ncc(C(F)(F)F)cc3Br)C2)cc(NC(=O)C2CC2)n1 [Example 60] | < 0.5 µM

Row | SMILES | IC50
23 | COc1cc(C(F)(F)F)cnc1N1CC[C@@H](NC(=O)c2cc(C)nc(NC(=O)C(C)C)c2)C1 [Example 84] | < 0.5 µM
24 | Cc1cc(C(=O)N[C@@H]2CCCN(c3ccc(OC(F)(F)F)cc3Cl)C2)cc(NC(=O)C(C)C)n1 [Example 128] | < 0.5 µM
25 | Cc1cc(C(=O)N[C@@H]2CCCN(c3ncc(C(F)(F)F)cc3Cl)C2)nc(NC(=O)C2CC2)n1 [Example 114] | < 0.5 µM
26 | CC(=O)Nc1cc(C(=O)NC2CN(c3ncc(C(F)(F)F)cc3Cl)C2)cc(C)n1 [Example 51] | < 0.5 µM
27 | O=C(N[C@@H]1CCN(c2ncc(OCC(F)(F)F)cc2Cl)C1)c1ccnc(NC(=O)C2CC2)c1 [Example 93] | < 0.5 µM
28 | O=C(N[C@@H]1CCN(c2ncc(C(F)(F)F)cc2Cl)C1)c1ccnc(NC(=O)C2CC2)n1 [Example 21] | < 0.5 µM
29 | Cc1cc(C(=O)N[C@@H]2CCCN(c3ccc(OC(F)(F)F)cc3Cl)C2)nc(NC(=O)C2CC2)n1 [Example 132] | < 0.5 µM
30 | Cc1cc(C(=O)N[C@@H]2CCN(c3ccc(C(F)(F)F)cc3Cl)C2)cc(NC(=O)C(C)C)n1 [Example 80] | < 0.5 µM
31 | O=C(N[C@@H]1CCCN(c2ncc(C(F)(F)F)cc2Cl)C1)c1ccnc(NC(=O)C2CCC2)n1 [Example 28] | < 0.5 µM
32 | O=C(N[C@@H]1CCCN(c2ncc(C(F)(F)F)cc2Br)C1)c1ccnc(NC(=O)C2CC2)c1 [Example 59] | < 0.5 µM
33 | CC(=O)Nc1cc(C(=O)NC2CN(c3ncc(C(F)(F)F)cc3Cl)C2)ccn1 [Example 8] | < 0.5 µM
34 | O=C(N[C@@H]1CCCN(c2ncc(OCc3ccc(F)cc3)cc2Cl)C1)c1ccnc(NC(=O)C2CC2)c1 [Example 99] | < 0.5 µM
35 | CCC(=O)Nc1cc(C(=O)N[C@@H]2CCCN(c3ncc(C(F)(F)F)cc3Cl)C2)ccn1 [Example 6] | < 0.5 µM
36 | CCC(=O)Nc1cc(C(=O)N[C@H]2CN(c3ncc(C(F)(F)F)cc3Cl)CC23CC3)cc(C)n1 [Example 107] | < 0.5 µM
37 | CC(C)C(=O)Nc1nccc(C(=O)N[C@@H]2CCCN(c3ncc(C(F)(F)F)cc3Cl)C2)n1 [Example 27] | < 0.5 µM
38 | CC(C)C(=O)Nc1cc(C(=O)N[C@@H]2CCCN(c3ccc(C(F)(F)F)cc3Cl)C2)ccn1 [Example 57] | < 0.5 µM
39 | CCC(=O)Nc1cc(C(=O)N[C@@H]2CCN(c3ncc(OCC(F)(F)F)cc3Cl)C2)ccn1 [Example 96] | < 0.5 µM
40 | Cc1cc(C(=O)N[C@@H]2CCCN(c3ccc(C(F)(F)F)cc3Cl)C2)cc(NC(=O)C2CC2)n1 [Example 56] | < 0.5 µM
41 | CC(=O)Nc1nccc(C(=O)N[C@@H]2CCCN(c3ncc(C(F)(F)F)cc3Cl)C2)n1 [Example 24] | < 0.5 µM
42 | Cc1cc(C(=O)N[C@@H]2CCN(c3ncc(C(F)(F)F)cc3Cl)C2)cc(NC(=O)C(C)C)n1 [Example 104] | < 0.5 µM
43 | CCC(=O)Nc1cc(C(=O)N[C@@H]2CCN(c3ncc(C(F)(F)F)cc3Cl)C2)ccn1 [Example 48] | < 0.5 µM
44 | Cc1cc(C(=O)N[C@@H]2CCN(c3ncc(C(F)(F)F)cc3Cl)C2)cc(NC(=O)C2CC2)n1 [Example 78] | < 0.5 µM

Row | SMILES | IC50
45 | CC(C)C(=O)Nc1cc(C(=O)N[C@H]2CN(c3ncc(C(F)(F)F)cc3Cl)CC23CC3)ccn1 [Example 109] | < 0.5 µM
46 | O=C(N[C@@H]1CCN(c2ccc(C(F)(F)F)cc2Cl)C1)c1ccnc(NC(=O)C2CC2)c1 [Example 77] | < 0.5 µM
47 | CC(C)C(=O)Nc1cc(C(=O)N[C@@H]2CCN(c3ncc(C(F)(F)F)cc3Cl)C2)ccn1 [Example 10] | < 0.5 µM
48 | CCCC(=O)Nc1cc(C(=O)N[C@@H]2CCN(c3ncc(C(F)(F)F)cc3OC)C2)ccn1 [Example 88] | < 0.5 µM
49 | Cc1cc(C(=O)N[C@H]2CN(c3ncc(C(F)(F)F)cc3Cl)CC23CC3)cc(NC(=O)C(C)C)n1 [Example 118] | < 0.5 µM
50 | CCC(=O)Nc1nccc(C(=O)N[C@@H]2CCCN(c3ncc(C(F)(F)F)cc3Cl)C2)n1 [Example 25] | < 0.5 µM
51 | Cc1cc(C(=O)N[C@@H]2CCCN(c3ncc(C(F)(F)F)cc3C)C2)cc(NC(=O)C(C)C)n1 [Example 73] | < 0.5 µM
52 | CCC(=O)Nc1cc(C(=O)N[C@@H]2CCN(c3ncc(C(F)(F)F)cc3OC)C2)ccn1 [Example 38] | < 0.5 µM
53 | CCC(=O)Nc1nccc(C(=O)N[C@@H]2CCN(c3ncc(C(F)(F)F)cc3Cl)C2)n1 [Example 20] | < 0.5 µM
54 | O=C(N[C@H]1CN(c2ncc(C(F)(F)F)cc2Cl)CC12CC2)c1ccnc(NC(=O)C2CC2)n1 [Example 119] | < 0.5 µM
55 | CC(=O)Nc1cc(C(=O)N[C@@H]2CCN(c3ncc(C(F)(F)F)cc3Cl)C2)ccn1 [Example 2] | < 0.5 µM
56 | CC(C)C(=O)Nc1cc(C(=O)N[C@@H]2CCCN(c3ccc(OC(F)(F)F)cc3Cl)C2)ccn1 [Example 127] | < 0.5 µM
57 | Cc1cc(C(=O)N[C@@H]2CCCN(c3ccc(C(F)(F)F)cc3Cl)C2)cc(NC(=O)C(C)C)n1 [Example 58] | < 0.5 µM
58 | CC(C)C(=O)Nc1nccc(C(=O)N[C@@H]2CCN(c3ncc(C(F)(F)F)cc3Cl)C2)n1 [Example 22] | < 0.5 µM
59 | CC(C)C(=O)Nc1cc(C(=O)NC2CN(c3ncc(C(F)(F)F)cc3Cl)C2)ccn1 [Example 50] | < 0.5 µM
60 | COc1cc(C(F)(F)F)cnc1N1CC[C@@H](NC(=O)c2ccnc(NC(C)=O)c2)C1 [Example 37] | < 0.5 µM
61 | CC(C)C(=O)Nc1cc(C(=O)N[C@@H]2CCN(c3ccc(C(F)(F)F)c(F)c3)C2)ccn1 [Example 123] | < 0.5 µM
62 | O=C(N[C@@H]1CCCN(c2ncc(OCC(F)(F)F)cc2Cl)C1)c1ccnc(NC(=O)C2CC2)c1 [Example 92] | < 0.5 µM
63 | Cc1cc(C(=O)NC2CN(c3ncc(C(F)(F)F)cc3Cl)C2)cc(NC(=O)C(C)C)n1 [Example 52] | < 0.5 µM
64 | COc1cc(C(F)(F)F)cnc1N1CC[C@@H](NC(=O)c2cc(C)nc(NC(C)=O)c2)C1 [Example 39] | < 0.5 µM
65 | CCC(=O)Nc1cc(C(=O)NC2CCC(C)N(c3ncc(C(F)(F)F)cc3Cl)C2)ccn1 (centres unmarked) [Example 42] | < 0.5 µM
